Measurements published in US5849770A, “Tri-substituted phenyl derivatives useful as PDE IV inhibitors” (Celltech Therapeutics Ltd., priority 1995, dated 1998).
Where a name gives a salt, the structure may show the parent alone.

How the values were obtained:
human PDE IVA = target: T1, human PDE IVA (Homo sapiens, UniProt P27815); experiment: Isolated recombinant human PDE IVA enzyme, phosphodiesterase activity; assay type: biochemical; conditions: 0.1 μM [3H]-cAMP, pH 7.5, 30° C.
T1 construct: made in house; host or cells: yeast (inducible vector)
T1 sequence (P27815 whole entry): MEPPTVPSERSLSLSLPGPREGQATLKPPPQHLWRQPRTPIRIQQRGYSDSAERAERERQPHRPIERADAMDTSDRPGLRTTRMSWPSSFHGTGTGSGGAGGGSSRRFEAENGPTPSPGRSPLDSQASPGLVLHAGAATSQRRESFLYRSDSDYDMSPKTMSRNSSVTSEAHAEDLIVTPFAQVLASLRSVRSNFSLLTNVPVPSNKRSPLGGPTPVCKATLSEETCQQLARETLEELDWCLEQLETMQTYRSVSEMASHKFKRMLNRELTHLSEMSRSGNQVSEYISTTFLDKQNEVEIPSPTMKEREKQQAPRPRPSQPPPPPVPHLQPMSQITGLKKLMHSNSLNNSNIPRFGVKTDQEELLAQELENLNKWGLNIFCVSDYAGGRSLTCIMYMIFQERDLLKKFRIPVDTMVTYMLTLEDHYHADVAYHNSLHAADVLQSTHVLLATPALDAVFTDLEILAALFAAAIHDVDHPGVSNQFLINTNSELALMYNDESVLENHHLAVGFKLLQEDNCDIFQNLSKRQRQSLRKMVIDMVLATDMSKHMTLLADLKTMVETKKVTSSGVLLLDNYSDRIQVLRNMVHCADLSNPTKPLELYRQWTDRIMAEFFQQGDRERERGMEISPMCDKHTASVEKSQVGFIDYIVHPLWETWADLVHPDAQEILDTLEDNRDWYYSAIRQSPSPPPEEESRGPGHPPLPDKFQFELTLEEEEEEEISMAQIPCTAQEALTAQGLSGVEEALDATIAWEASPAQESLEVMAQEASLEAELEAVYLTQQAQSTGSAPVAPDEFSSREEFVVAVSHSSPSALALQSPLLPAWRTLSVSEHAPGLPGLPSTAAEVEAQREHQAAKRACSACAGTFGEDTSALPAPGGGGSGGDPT
Text: A gene encoding human PDE IV has been cloned from human monocytes (Livi, et al., 1990, Molecular and Cellular Biology, 10, 2678). Using similar procedures we have cloned human PDE IV genes from a number of sources including eosinophils, neutrophils, lymphocytes, monocytes, brain and neuronal tissues. These genes have been transfected into yeast using an inducible vector and various recombinant proteins have been expressed which have the biochemical characteristics of PDE IV (Beavo and Reifsnyder, 1990, TIPS, 11, 150). These recombinant enzymes, particularly the human eosinophil recombinant PDE IVA, have been used as the basis of a screen for potent, selective PDE IV inhibitors.
The enzymes were purified to isoenzyme homogeneity using standard chromatographic techniques.
Phosphodiesterase activity was assayed as follows. The reaction was conducted in 150 μl of standard mixture containing (final concentrations): 50 mM 2-[[tris(hydroxymethyl)methyl]amino]-1-ethanesulphonic acid (TES) --NaOH buffer (pH 7.5), 10 mM MgCl2, 0.1 μM [^3 H]-cAMP and vehicle or various concentrations of the test compounds. The reaction was initiated by addition of enzyme and conducted at 30° C. for between 5 to 30 min. The reaction was terminated by addition of 50 μl 2% trifluoroacetic acid containing [^14 C]-5'AMP for determining recovery of the product. An aliquot of the sample was then applied to a column of neutral alumina and the [^3 H]-cAMP eluted with 10 ml 0.1 TES-NaOH buffer (pH8). The [^3 H]-5'-AMP product was eluted with 2 ml 2M NaOH into a scintillation vial containing 10 ml of scintillation cocktail. Recovery of [^3 H]-5'AMP was determined using the [^14 C]-5'AMP and all assays were conducted in the linear range of the reaction. Results were expressed as IC50 values.

[1] = Plasma levels after oral administration to squirrel monkeys; assay type: in vivo; conditions: monkey, 10 mg/kg p.o., after 30 min, read-out: plasma level
Procedure: The same two compounds were also administered orally to squirrel monkeys at 10 mg/kg p.o,. and the plasma levels of each determined. After 1 h the […] compound was present at 1 μg/ml whereas after 30 min the compound of Example 1 was present at 34 μg/ml, thus illustrating the good oral availability of the compound.

[2] = Rat hepatocyte metabolism; assay type: in vitro ADME; conditions: rat hepatocytes, after 3 h; read-out: percentage of compound remaining
Procedure: The quantity of compound remaining after a fixed period of time was then determined using mass spectroscopy.
Thus in one such test the compound of Example 1 was compared with a related compound particularly described in International Patent Specification No. WO94/14742 in which the phenylsulphonyl group in the compound of Example 1 is replaced by a hydrogen atom. After 3 h the percentage of each compound remaining was: […]

IC50 (human PDE IVA)	concentration at 0.5 h [1]	remaining at 3 h [2]	SMILES
0.0139 µM			COc1ccc([C@H](Cc2ccncc2)c2ccc(NC(=O)NS(=O)(=O)c3ccc(C)cc3)cc2)cc1OC1CCCC1 [Example 2, (R)-N-[4-{1-(3-Cyclopentyloxy-4-methoxyphenyl)-2-(4-pyridyl)ethyl}-phenyl]-N'-(methylphenylsulphonyl) urea, hydrochloride]
0.0176 µM			COc1ccc([C@H](Cc2ccncc2)c2ccc(NC(=O)NS(=O)(=O)c3ccc(Cl)cc3)cc2)cc1OC1CCCC1 [Example 3, (R)-N-[4-{1-(3-Cyclopentyloxy-4-methoxyphenyl)-2-(4-pyridyl)ethyl}-phenyl]-N'-(4-chlorophenylsulphonyl) urea, hydrochloride]
0.004 µM	34 µg/mL	56%	COc1ccc([C@H](Cc2ccncc2)c2ccc(NC(=O)NS(=O)(=O)c3ccccc3)cc2)cc1OC1CCCC1 [Example 1, (R)-N-[4-{1-(3-Cyclopentyloxy-4-methoxyphenyl)-2-(4-pyridyl)ethyl}-phenyl]-N'-(phenylsulphonyl) urea, hydrochloride]
